# Source: patent US20260007133A1, “HERBICIDAL COMPOSITION COMPRISING AZINE COMPOUNDS” (BASF SE, priority 2022, published 2026)
# Key:
# Format in all cases: in vivo
# [1] = test system: Alopecurus myosuroides; assay: Greenhouse pre-emergence (PRE) herbicidal test on ALOMY; details: Alopecurus myosuroides, pre-emergence, 480 h
# In short: (§1)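 Pre-emergence greenhouse assay: sown loamy-sand pots (humus approx. 3.0%) were kept under transparent hoods until rooting, then grown at species-appropriate 10-25° C or 20-35° C. Response ratings of 0 (no damage) to 100 (no plants emerged) were recorded 20 days after application.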
# [2] = test system: Amaranthus retroflexus; assay: Greenhouse pre-emergence (PRE) herbicidal test on AMARE; details: Amaranthus retroflexus, pre-emergence, 480 h, read-out: % activity
# Description: (§2) The culture containers used were plastic pots containing loamy sand with approximately 3.0% of humus as substrate. The seeds of the test plants were sown separately for each species.
# The containers were irrigated gently to promote germination and growth and subsequently covered with transparent plastic hoods until the plants had rooted.
# (§3) Depending on the species, the plants were kept at 10-25° C. and 20-35° C., respectively.
# (§4) The test period extended over 2 to 4 weeks. During this time, the plants were tended and their response to the individual treatments was evaluated.
# (§5) Evaluation was carried out using a scale from 0 to 100. 100 means no emergence of the plants, or complete destruction of at least the above-ground parts, and 0 means no damage or normal course of growth. A good herbicidal activity is given at values of at least 70, and very good herbicidal activity is given at values of at least 85.
# (§6) As indicated application was either post emergent (POST) at the respective growth stage (GS) of the weed (BBCH code), or pre-emergent (PRE). […]
# [3] = test system: Ambrosia artemisiifolia; assay: Greenhouse pre-emergence (PRE) herbicidal test on AMBEL; details: Ambrosia artemisiifolia, pre-emergence, 480 h
# [4] = test system: Commelina benghalensis; assay: Greenhouse pre-emergence (PRE) herbicidal test on COMBE; details: Commelina benghalensis, pre-emergence, 480 h
# In short: as §1
# [5] = test system: Euphorbia heterophylla; assay: Greenhouse pre-emergence (PRE) herbicidal test on EPHHL; details: Euphorbia heterophylla, pre-emergence, 480 h
# In short: as §1
# [6] = test system: Lolium multiflorum; assay: Greenhouse pre-emergence (PRE) herbicidal test on LOLMU; details: Lolium multiflorum, pre-emergence, 480 h
# In short: as §1
# [7] = test system: Abutilon theophrasti; assay: Greenhouse pre-emergence (PRE) herbicidal test on ABUTH; details: Abutilon theophrasti, pre-emergence, 480 h, read-out: solo application % activity
# In short: as §1
# [8] = test system: Setaria viridis; assay: Greenhouse pre-emergence (PRE) herbicidal test on SETVI; details: Setaria viridis, pre-emergence, 480 h, read-out: solo application % activity
# Text: as §2
# For the pre-emergence treatment, the active compounds, suspended or emulsified in water, were applied directly after sowing by means of finely distributing nozzles. The containers were irrigated gently to promote germination and growth and subsequently covered with transparent plastic hoods until the plants had rooted. This cover caused uniform germination of the test plants unless this was adversely affected by the active compounds.
# as §3, §4, §5
# (§7) If not stated differently, the respective components A and B, and if appropriate, C were formulated as a 5% by weight strength emulsion concentrate and, with addition of the amount of solvent system, introduced into the spray liquor used for applying the active compound.
# as §6
# [9] = test system: Abutilon theophrasti; assay: Greenhouse post-emergence (POST) herbicidal test on ABUTH; details: Abutilon theophrasti, post-emergence, 480 h, read-out: solo application % activity
# In short: (§8)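 Weeds grown in loamy sand (~3.0% humus) to 3–15 cm were sprayed post-emergence with compounds suspended or emulsified in water, formulated as 5% emulsion concentrates. Plants were kept at 10-25 °C or 20-35 °C by species. Damage was scored 0–100 (100 = complete destruction) at 20 DAT.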
# [10] = test system: Amaranthus retroflexus; assay: Greenhouse post-emergence (POST) herbicidal test on AMARE; details: Amaranthus retroflexus, post-emergence, 480 h, read-out: solo application % activity
# Description: as §2
# (§9) For the post-emergence treatment, the test plants were grown to a plant height of from 3 to 15 cm, depending on the plant habit, and only then treated with the active compounds which had been suspended or emulsified in water. To this end, the test plants were either sown directly, and grown in the same containers, or they were first grown separately as seedlings and transplanted into the test containers a few days prior to treatment.
# as §3, §4, §5, §7, §6
# [11] = test system: Digitaria sanguinalis; assay: Greenhouse post-emergence (POST) herbicidal test on DIGSA; details: Digitaria sanguinalis, post-emergence, 480 h, read-out: solo application % activity
# In short: as §8
# [12] = test system: Echinochloa crus-galli; assay: Greenhouse post-emergence (POST) herbicidal test on ECHCG; details: Echinochloa crus-galli, post-emergence, 480 h, read-out: solo application % activity
# In short: as §8
# [13] = test system: Euphorbia heterophylla; assay: Greenhouse post-emergence (POST) herbicidal test on EPHHL; details: Euphorbia heterophylla, post-emergence, 480 h, read-out: solo application % activity
# In short: as §8
# [14] = test system: Geranium pusillum; assay: Greenhouse post-emergence (POST) herbicidal test on GERPU; details: Geranium pusillum, post-emergence, 480 h, read-out: solo application % activity
# In short: as §8
# [15] = test system: Ipomoea hederacea; assay: Greenhouse post-emergence (POST) herbicidal test on IPOHE; details: Ipomoea hederacea, post-emergence, 480 h, read-out: solo application % activity
# Description: as §2, §9, §3, §4, §5, §7
# As indicated application was either post emergent (POST) at the respective growth stage (GS) of the weed (BBCH code), or pre-emergent (PRE).
# Assessment was 20 days after treatment (DAT).
# [16] = read-out: solo application % activity
compound,measurement,setting,value
"CCOC(=O)C(C)Oc1ccc(Oc2cnc3cc(Cl)ccc3n2)cc1 (stereo not drawn) [Quizalofop-Ethyl, quizalofop-ethyl]",pest or weed control at 2 g/ha,[1]; read-out: % activity,0%
same,pest or weed control at 4 g/ha,[2],0%
same,pest or weed control at 2 g/ha,[3]; read-out: % activity,0%
same,pest or weed control at 4 g/ha,[3]; read-out: % activity,0%
same,pest or weed control at 2 g/ha,[4]; read-out: % activity,0%
same,pest or weed control at 4 g/ha,[4]; read-out: % activity,0%
same,pest or weed control at 4 g/ha,[5]; read-out: % activity,5%
same,pest or weed control at 2 g/ha,[6]; read-out: % activity,0%
same,pest or weed control at 4 g/ha,[6]; read-out: % activity,0%
"CCSC(C)CC1CC(=O)C(/C(CC)=N/OC/C=C/Cl)=C(O)C1 (stereo not drawn) [Clethodim, clethodim]",inhibition at 5 g/ha,[7],0%
same,inhibition at 5 g/ha,[1]; [16],60%
same,inhibition at 10 g/ha,[1]; [16],75%
same,inhibition at 5 g/ha,[3]; [16],0%
same,inhibition at 10 g/ha,[3]; [16],0%
same,inhibition at 5 g/ha,[4]; [16],0%
same,inhibition at 10 g/ha,[4]; [16],0%
same,inhibition at 5 g/ha,[5]; [16],0%
same,inhibition at 10 g/ha,[5]; [16],0%
same,inhibition at 5 g/ha,[6]; [16],60%
same,inhibition at 5 g/ha,[8],25%
same,inhibition at 10 g/ha,[9],0%
same,inhibition at 5 g/ha,[10],0%
same,inhibition at 10 g/ha,[10],0%
same,inhibition at 10 g/ha,[11],80%
same,inhibition at 5 g/ha,[12],80%
same,inhibition at 5 g/ha,[13],0%
same,inhibition at 10 g/ha,[13],0%
same,inhibition at 5 g/ha,[14],0%
same,inhibition at 10 g/ha,[14],0%
same,inhibition at 5 g/ha,[15],0%
